In patent US12398097B2, “WDR5-MYC inhibitors” (Vanderbilt University, priority 2019, dated 2025):

Biological target: WDR5 (Homo sapiens, UniProt P61964)
Assay: Competition-based fluorescence polarization anisotropy assay
Settings: binding to WDR5; displacement of FITC-labeled small molecule probe (analogous to Example J2 or HCH-25) or peptide probe FITC-AHx-SEEEIDVVSV; pH 6.0; Ki converted from IC50
Method in brief: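 Ki values derive from displacement of either a fluorescent small-molecule probe or a FITC-peptide probe from WDR5, monitored by fluorescence polarization. Assay run at pH 6.0 in 200 mM phosphate with 300 mM NaCl, 0.5 mM TCEP and 0.1% Chaps.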

Row | SMILES | Ki [nM]
1 | NC(=O)c1c(O)c(NS(=O)(=O)c2cc(Br)ccc2O)cc(C2CC2)c1F [Example J123, 3-((5-Bromo-2-hydroxyphenyl)sulfonamido)-5-cyclopropyl-6-fluoro-2-hydroxybenzamide] | 360
2 | CNC(=O)c1c(O)c(NS(=O)(=O)c2cc(Br)ccc2O)cc(C2CC2)c1F [Example J124, 3-((5-Bromo-2-hydroxyphenyl)sulfonamido)-5-cyclopropyl-6-fluoro-2-hydroxy-N-methylbenzamide] | 280
3 | O=C(NCCN1CCOCC1)c1c(O)c(NS(=O)(=O)c2cc(Br)ccc2O)cc(C2CC2)c1F [Example J125, 3-((5-Bromo-2-hydroxyphenyl)sulfonamido)-5-cyclopropyl-6-fluoro-2-hydroxy-N-(2-morpholinoethyl)benzamide] | 1320
4 | O=C(NCCO)c1c(O)c(NS(=O)(=O)c2cc(Br)ccc2O)cc(C2CC2)c1F [Example J126, 3-((5-Bromo-2-hydroxyphenyl)sulfonamido)-5-cyclopropyl-6-fluoro-2-hydroxy-N-(2-hydroxyethyl)benzamide] | 770
5 | COCCNC(=O)c1c(O)c(NS(=O)(=O)c2cc(Br)ccc2O)cc(C2CC2)c1F [Example J127, 3-((5-Bromo-2-hydroxyphenyl)sulfonamido)-5-cyclopropyl-6-fluoro-2-hydroxy-N-(2-methoxyethyl)benzamide] | 1970
6 | O=C(NC1COC1)c1c(O)c(NS(=O)(=O)c2cc(Br)ccc2O)cc(C2CC2)c1F [Example J128, 3-((5-Bromo-2-hydroxyphenyl)sulfonamido)-5-cyclopropyl-6-fluoro-2-hydroxy-N-(oxetan-3-yl)benzamide] | 700
7 | O=C(NC1CCOC1)c1c(O)c(NS(=O)(=O)c2cc(Br)ccc2O)cc(C2CC2)c1F (centres unmarked) [Example J131, 3-((5-Bromo-2-hydroxyphenyl)sulfonamido)-5-cyclopropyl-6-fluoro-2-hydroxy-N-(tetrahydrofuran-3-yl)benzamide] | 2990
8 | O=C(N[C@@H]1CCOC1)c1c(O)c(NS(=O)(=O)c2cc(Br)ccc2O)cc(C2CC2)c1F [Example J132, (R)-3-((5-Bromo-2-hydroyphenyl)sulfonamido)-5-cyclopropyl-6-fluoro-2-hydroxy-N-(tetrahydrofuran-3-yl)benzamide] | 2450
9 | O=C(N[C@H]1CCOC1)c1c(O)c(NS(=O)(=O)c2cc(Br)ccc2O)cc(C2CC2)c1F [Example J133, (S)-3-((5-Bromo-2-hydroxyphenyl)sulfonamido)-5-cyclopropyl-6-fluoro-2-hydroxy-N-(tetrahydrofuran-3-yl)benzamide] | 4510
10 | CNC(=O)c1cc(NS(=O)(=O)c2cc(Br)ccc2O)cc(C2CC2)c1F [Example J135, 5-((5-Bromo-2-hydroxyphenyl)sulfonamido)-3-cyclopropyl-2-fluoro-N-methylbenzamide] | 690
11 | COCCNC(=O)c1cc(NS(=O)(=O)c2cc(Br)ccc2O)cc(C2CC2)c1F [Example J136, 5-((5-Bromo-2-hydroxyphenyl)sulfonamido)-3-cyclopropyl-2-fluoro-N-(2-methoxyethyl)benzamide] | 1110
12 | O=C(NCCN1CCOCC1)c1cc(NS(=O)(=O)c2cc(Br)ccc2O)cc(C2CC2)c1F [Example J137, 5-((5-Bromo-2-hydroxyphenyl)sulfonamido)-3-cyclopropyl-2-fluoro-N-(2-morpholinoethyl)benzamide] | 2980
13 | O=C(NC1COC1)c1cc(NS(=O)(=O)c2cc(Br)ccc2O)cc(C2CC2)c1F [Example J138, 5-((5-Bromo-2-hydroxyphenyl)sulfonamido)-3-cyclopropyl-2-fluoro-N-(oxetan-3-yl)benzamide] | 4750
14 | O=C(NC1CCOC1)c1cc(NS(=O)(=O)c2cc(Br)ccc2O)cc(C2CC2)c1F (centres unmarked) [Example J139, 5-((5-Bromo-2-hydroxyphenyl)sulfonamido)-3-cyclopropyl-2-fluoro-N-(tetrahydrofuran-3-yl)benzamide] | 12200
15 | CNC(=O)c1cc(C2CC2)cc(NS(=O)(=O)c2cc(Br)ccc2O)c1F [Example J141, 3-((5-Bromo-2-hydroxyphenyl)sulfonamido)-5-cyclopropyl-2-fluoro-N-methylbenzamide] | 960
16 | COCCNC(=O)c1cc(C2CC2)cc(NS(=O)(=O)c2cc(Br)ccc2O)c1F [Example J142, 3-((5-Bromo-2-hydroxyphenyl)sulfonamido)-5-cyclopropyl-2-fluoro-N-(2-methoxyethyl)benzamide] | 1480
17 | O=C(NCCN1CCOCC1)c1cc(C2CC2)cc(NS(=O)(=O)c2cc(Br)ccc2O)c1F [Example J143, 3-((5-Bromo-2-hydroxyphenyl)sulfonamido)-5-cyclopropyl-2-fluoro-N-(2-morpholinoethyl)benzamide] | 2540
18 | O=C(NC1COC1)c1cc(C2CC2)cc(NS(=O)(=O)c2cc(Br)ccc2O)c1F [Example J144, 3-((5-Bromo-2-hydroxyphenyl)sulfonamido)-5-cyclopropyl-2-fluoro-N-(oxetan-3-yl)benzamide] | 6760

Row | SMILES | Ki [nM]
19 | CNC(=O)c1c(O)c(NS(=O)(=O)c2cc(Br)cc(Cl)c2O)cc(C2CC2)c1F [Example J146, 3-((5-Bromo-3-chloro-2-hydroxyphenyl)sulfonamido)-5-cyclopropyl-6-fluoro-2-hydroxy-N-methylbenzamide] | 40
20 | COCCNC(=O)c1c(O)c(NS(=O)(=O)c2cc(Br)cc(Cl)c2O)cc(C2CC2)c1F [Example J147, 3-((5-Bromo-3-chloro-2-hydroxyphenyl)sulfonamido)-5-cyclopropyl-6-fluoro-2-hydroxy-N-(2-methoxyethyl)benzamide] | 230
21 | O=C(NCCN1CCOCC1)c1c(O)c(NS(=O)(=O)c2cc(Br)cc(Cl)c2O)cc(C2CC2)c1F [Example J148, 3-((5-Bromo-3-chloro-2-hydroxyphenyl)sulfonamido)-5-cyclopropyl-6-fluoro-2-hydroxy-N-(2-morpholinoethyl)benzamide] | 600
22 | O=C(NC1COC1)c1c(O)c(NS(=O)(=O)c2cc(Br)cc(Cl)c2O)cc(C2CC2)c1F [Example J149, 3-((5-Bromo-3-chloro-2-hydroxyphenyl)sulfonamido)-5-cyclopropyl-6-fluoro-2-hydroxy-N-(oxetan-3-yl)benzamide] | 710
23 | CNC(=O)c1c(O)c(NS(=O)(=O)c2cc(Br)cc(F)c2O)cc(C2CC2)c1F [Example J150, 3-((5-Bromo-3-fluoro-2-hydroxyphenyl)sulfonamido)-5-cyclopropyl-6-fluoro-2-hydroxy-N-methylbenzamide] | 920
24 | CNC(=O)c1cc(NS(=O)(=O)c2cc(Br)cc(Cl)c2O)cc(C2CC2)c1F [Example J151, 5-((5-Bromo-3-chloro-2-hydroxyphenyl)sulfonamido)-3-cyclopropyl-2-fluoro-N-methylbenzamide] | 210
25 | COCCNC(=O)c1cc(NS(=O)(=O)c2cc(Br)cc(Cl)c2O)cc(C2CC2)c1F [Example J152, 5-((5-Bromo-3-chloro-2-hydroxyphenyl)sulfonamido)-3-cyclopropyl-2-fluoro-N-(2-methoxyethyl)benzamide] | 320
26 | O=C(NCCN1CCOCC1)c1cc(NS(=O)(=O)c2cc(Br)cc(Cl)c2O)cc(C2CC2)c1F [Example J153, 5-((5-Bromo-3-chloro-2-hydroxyphenyl)sulfonamido)-3-cyclopropyl-2-fluoro-N-(2-morpholinoethyl)benzamide] | 440
27 | O=C(Nc1nc[nH]n1)c1cc(NS(=O)(=O)c2cc(Br)cc(Cl)c2O)cc(C2CC2)c1F [Example J154, 5-((5-Bromo-3-chloro-2-hydroxyphenyl)sulfonamido)-3-cyclopropyl-2-fluoro-N-(1H-1,2,4-triazol-3-yl)benzamide] | 130
28 | O=C(NC1COC1)c1cc(NS(=O)(=O)c2cc(Br)cc(Cl)c2O)cc(C2CC2)c1F [Example J155, 5-((5-Bromo-3-chloro-2-hydroxyphenyl)sulfonamido)-3-cyclopropyl-2-fluoro-N-(oxetan-3-yl)benzamide] | 330
29 | CNC(=O)c1cc(C2CC2)cc(NS(=O)(=O)c2cc(Br)cc(Cl)c2O)c1F [Example J156, 3-((5-Bromo-3-chloro-2-hydroxyphenyl)sulfonamido)-5-cyclopropyl-2-fluoro-N-methylbenzamide] | 210
30 | COCCNC(=O)c1cc(C2CC2)cc(NS(=O)(=O)c2cc(Br)cc(Cl)c2O)c1F [Example J157, 3-((5-Bromo-3-chloro-2-hydroxyphenyl)sulfonamido)-5-cyclopropyl-2-fluoro-N-(2-methoxyethyl)benzamide] | 210
31 | O=C(NCCN1CCOCC1)c1cc(C2CC2)cc(NS(=O)(=O)c2cc(Br)cc(Cl)c2O)c1F [Example J158, 3-((5-Bromo-3-chloro-2-hydroxyphenyl)sulfonamido)-5-cyclopropyl-2-fluoro-N-(2-morpholinoethyl)benzamide] | 320
32 | O=C(NC1COC1)c1cc(C2CC2)cc(NS(=O)(=O)c2cc(Br)cc(Cl)c2O)c1F [Example J159, 3-((5-Bromo-3-chloro-2-hydroxyphenyl)sulfonamido)-5-cyclopropyl-2-fluoro-N-(oxetan-3-yl)benzamide] | 610
33 | O=C(O)c1cc(OC(F)(F)F)cc(NS(=O)(=O)c2cc(Br)ccc2O)c1O [Example J160, 3-((5-Bromo-2-hydroxyphenyl)sulfonamido)-2-hydroxy-5-(trifluoromethoxy)benzoic acid] | 60
34 | O=C(O)c1cc(OC(F)(F)F)cc(NS(=O)(=O)c2cc(Br)cc3cccnc23)c1O [Example J161, 3-((6-Bromoquinoline)-8-sulfonamido)-2-hydroxy-5-(trifluoromethoxy)benzoic acid] | 350
35 | CNC(=O)c1cc(OC(F)(F)F)cc(NS(=O)(=O)c2cc(Br)ccc2O)c1O [Example J162, 3-((5-Bromo-2-hydroxyphenyl)sulfonamido)-2-hydroxy-N-methyl-5-(trifluoromethoxy)benzamide] | 410
